Source: patent publication US7045512B2 (priority 2003, dated 2006)

Key:
[1] = tested on: Rhizoctonia solani; test: microbe, parasite or virus in culture; type: cell-based; conditions: for inhibition of growth at 100 ppm: Rhizoctonia solani, 48 h, read-out: Percent Control Rhizoctonia solani
[2] = tested on: Botrytis cinerea; test: Foliar spray for the control of geranium gray mold; type: in vivo; conditions: 300 ppm, greenhouse foliar spray, geranium plants
Method: Foliar Spray for the Control of Geranium Gray Mold Caused by Botrytis cinerea
Technical grade material at defined ppm rates (w/v) in an acetone:water mixture (1:9) containing 0.1% Tween 20 (v/v) is sprayed to near run-off onto mature greenhouse-grown geranium plants (var. “Pinto White”) in the second leaf stage. Treated plants are inoculated within 24 hours with an aqueous suspension of approximately 100,000 conidia/ml of Botrytis cinerea grown on artificial medium. Inoculated plants are placed into a high humidity chamber for 5 days and then transferred to the greenhouse for one day for disease development. Disease severity is examined and the % control is calculated as [% disease on untreated plants−% disease on treated plants]/% disease on untreated plants. The results of these tests are shown in Table 2A below under the heading “Foliar Application—Geranium Gray Mold”.

[3] = tested on: Fusarium nivale; test: microbe, parasite or virus in culture; type: cell-based; conditions: for inhibition of growth at 100 ppm: Microdochium nivale, 48 h, read-out: Percent Control Fusarium nivale
[4] = tested on: Botrytis cinerea; test: microbe, parasite or virus in culture; type: cell-based; conditions: for inhibition of growth at 100 ppm: Botrytis cinerea, 48 h, read-out: Percent Control Botrytis cinerea
[5] = tested on: Barley Powdery Mildew; test: Soil drench for the control of barley powdery mildew; type: in vivo, Erysiyphe graminis f.sp. hordei; conditions: 300 ppm, greenhouse soil drench
Method: (§1) Soil Drench for the Control of Barley or Cucumber Powdery Mildew
(§2) Technical grade material formulated as described for foliar sprays is dispensed at defined rates (ml/cm^3) into the soil in the pots for barley and cucumber in the stages as described for the foliar sprays. Treated plants are inoculated, within 24 hours with the respective powdery mildew species as described for the foliar spray tests. Inoculated plants are kept in the greenhouse for 6–8 days for disease development. Disease severity is examined and the % control is calculated as [% disease on untreated plants−% disease on treated plants]/% disease on untreated plants. The results of these tests are shown in Table 2B below under the heading “Drench Application—Barley Powdery Mildew” and “Drench Application—Cucumber Powdery Mildew”.

[6] = tested on: Pyricularia oryzae; test: whole plant or invertebrate; type: in vivo; conditions: for pest or weed control at 300 ppm: Pyricularia oryzae, foliar, read-out: Foliar Application (Percent Control) Rice Blast
[7] = tested on: Phytophthora infestans; type: in vivo; conditions: 300 ppm, greenhouse foliar spray, tomato plants
[8] = tested on: Sclerotium rolfsii; type: cell-based
[9] = tested on: Phytophthora infestans; test: microbe, parasite or virus in culture; type: cell-based; conditions: for inhibition of growth at 100 ppm: Phytophthora infestans, 48 h, read-out: Percent Control Phytophthora infestants; for Percent Control Phytophthora infestants: in vitro, rate 100 ppm, 48 hours
[10] = tested on: Erysiyphe graminis f.sp. hordei; test: Foliar spray for the control of barley powdery mildew; type: in vivo; conditions: greenhouse foliar spray, barley plants; for pest or weed control at 300 ppm: Hordeum vulgare, read-out: Foliar Application (Percent Control) Barley Powdery Mildew; for Foliar Application (Percent Control) Barley Powdery Mildew: 300 ppm
Method: Foliar Spray for the Control of Barley Powdery Mildew caused by Erysiyphe graminis f.sp. hordei
Technical grade material at defined ppm rates (w/v) in an acetone:water mixture (1:9) containing 0.1% Tween 20 (v/v) is sprayed to near run-off onto 7-days-old greenhouse-grown barley plants (var. “Robust”) at the cotyledon stage. Treated plants are inoculated within 24 hours by brushing mildew-infected plants over the treated plants. Inoculated plants are kept in the greenhouse for 6–8 days for disease development. Disease severity is examined and the % control is calculated as [% disease on untreated plants−% disease on treated plants]/% diseases in untreated plants. The results of these tests are shown in Table 2A below under the heading “Foliar Application—Barley Powdery Mildew”.

[11] = tested on: Helminthosporium sativum; test: Foliar spray for the control of barley blotch; type: in vivo; conditions: greenhouse foliar spray, barley plants; for pest or weed control at 300 ppm: Helminthosporium, read-out: Foliar Application (Percent Control) Barley Blotch; for Foliar Application (Percent Control) Barley Blotch: 300 ppm
Method: Foliar Spray for the Control of Barley Blotch Caused by Helminthosporium sativum
Technical grade material at defined ppm rates (w/v) in an acetone:water mixture (1:9) containing 0.1% Tween 20 (v/v) is sprayed to near run-off onto 7-days-old greenhouse-grown barley plants (var. “Robust”) at the cotyledon stage. Treated plants are inoculated within 24 hours from spraying with an aqueous suspension of approximately 15,000 conidia/ml of Helminthosporium sativum grown on artificial medium. Inoculated plants are placed into a high humidity chamber for 24 hr and then transferred to the greenhouse for 4–5 days for disease development. Disease severity is examined and the % control is calculated as [% disease on untreated plants−% disease on treated plants]/% disease on untreated plants.
The results of these tests are shown in Table 2A below under the heading “Foliar Application—Barley Blotch”.

[12] = tested on: Pythium ultimum; test: microbe, parasite or virus in culture; type: cell-based; conditions: for inhibition of growth at 100 ppm: Globisporangium ultimum, 48 h, read-out: Percent Control Pythium ultimum
[13] = tested on: Uromyces appendiculatus; test: Foliar spray for the control of bean rust; type: in vivo; conditions: 300 ppm
Method: Foliar Spray for the Control of Bean Rust Caused by Uromyces appendiculatus
Technical grade material at defined ppm rates (w/v) in an acetone:water mixture (1:9) containing 0.1% Tween 20 (v/v) is sprayed to near run-off onto 10-days-old greenhouse-grown Pinto bean plants (var. “Othello”) in the second leaf stage. Treated plants are inoculated within 24 hours with an aqueous suspension of approximately 20,000 uredospores of Uromyces appendiculatus harvested from rust-infected plants. Inoculated plants are placed into a high humidity chamber for 24 hr and then transferred to the greenhouse for two weeks for disease development. Disease severity is examined and the % control is calculated as [% disease on untreated plants−% disease on treated plants]/% disease on untreated plants. The results of these tests are shown in Table 2A below under the heading “Foliar Application—Bean Rust”.

[14] = tested on: Cucumber Powdery Mildew; test: Soil drench for the control of cucumber powdery mildew; type: in vivo; conditions: 300 ppm, greenhouse soil drench
Method: as §1, §2

[15] = tested on: Erysiyphe polygoni; test: Foliar spray for the control of bean powdery mildew; type: in vivo; conditions: 300 ppm, greenhouse foliar spray, Pinto bean plants
Method: Foliar Spray for the Control of Bean Powdery Mildew Caused by Erysiyphe polygoni
Technical grade material at defined ppm rates (w/v) in an acetone:water mixture (1:9) containing 0.1% Tween 20 (v/v) is sprayed to near run-off onto greenhouse-grown Pinto bean plants (var. “Othello”) in the second leaf stage. Treated plants are inoculated within 24 hours by brushing mildew-infected plants over treated plants. Inoculated plants are kept in the greenhouse for two weeks for disease development. Disease severity is examined and the % control is calculated as [% disease on untreated plants−% disease on treated plants]/% disease on untreated plants. The results of these tests are shown in Table 2A below under the heading “Foliar Application—Bean Powdery Mildew”.

[16] = tested on: Sclerotinia minor; type: cell-based
[17] = tested on: Colletotrichum gossypii; type: cell-based
[18] = tested on: Cercosporidium personatum; type: cell-based
[19] = greenhouse foliar spray, Pinto bean plants
[20] = screened against rust on beans as foliar-applied eradicant

SMILES	inhibition of growth at 100 ppm [1] [%]	Foliar Application (Percent Control) Geranium Gray Mold [2] [%]	inhibition of growth at 100 ppm [3] [%]	inhibition of growth at 100 ppm [4] [%]	Drench Application (Percent Control) Barley Powdery Mildew [5] [%]	pest or weed control at 300 ppm [6] [%]	Foliar Application (Percent Control) Tomato Late Blight [7] [%]	Percent Control Sclerotium rolfsii [8] [%]	inhibition of growth at 100 ppm [9] [%]	pest or weed control at 300 ppm [10] [%]	pest or weed control at 300 ppm [11] [%]	Foliar Application (Percent Control) Bean Rust [13, 19] [%]	Drench Application (Percent Control) Cucumber Powdery Mildew [14] [%]	Percent Control Rhizoctonia solani [1] [%]	Percent Control Fusarium nivale [3] [%]	Percent Control Botrytis cinerea [4] [%]	Percent Control Phytophthora infestants [9] [%]	Foliar Application (Percent Control) Barley Powdery Mildew [10] [%]	Foliar Application (Percent Control) Barley Blotch [11] [%]	Percent Control Pythium ultimum [12] [%]	also measured
CC(C)OC(=O)NNc1ccc(Oc2cccc(C(F)(F)F)c2)cc1 [Compound 1, 1-methylethyl 2-[4-[3-(trifluoromethyl)phenoxy]phenyl]hydrazinecarboxylate]	91	87	29	100	0	79	12	100	100	90	97	97	0								inhibition of growth at 100 ppm [12]: 100%
CCC(C)OC(=O)NN(C(=O)C(F)(F)F)c1ccc(Sc2ccccc2)cc1 (stereo not shown) [Compound 4]					0		0						0	95	50	75	100	0	0	15	Foliar Application (Percent Control) Bean Powdery Mildew [15]: 88%; Percent Control Sclerotinia minor [16]: 50%; Percent Control Colletotricum gossypii [17]: 15%; Foliar Application (Percent Control) Bean Rust [13, 20]: 0(e) %; Percent Control Cercosporidium personatum [18]: 65%
COC(=O)NNc1ccc(Oc2cccnc2)cc1 [Compound 5]					0			100					0	0	90	25	20	0	0	70	Foliar Application (Percent Control) Bean Powdery Mildew [15]: 0%; Percent Control Sclerotinia minor [16]: 100%; Percent Control Colletotricum gossypii [17]: 100%; Foliar Application (Percent Control) Bean Rust [13, 20]: 0(e) %; Percent Control Cercosporidium personatum [18]: 0%
CC(C)OC(=O)NN(C(=O)C(F)(F)F)c1ccc(Oc2cccc(Cl)c2)nc1 [Compound 6]		82			0		0	98				0	0	100	71	98	100	0	97	25	Foliar Application (Percent Control) Rice Blast ([6]; 300 ppm, greenhouse foliar spray, rice plants): 92%
CC(C)OC(=O)N=Nc1ccc(Oc2cccc(C(F)(F)F)c2)cc1 [Compound 9, 1-methylethyl [4-[3-(trifluoromethyl)phenoxy]phenyl]diazene carboxylate]	22		75	77	25	98		91	9	15	97	45	0								inhibition of growth at 100 ppm [12]: 0%
